From patent US20170260183A1, “BICYCLIC COMPOUNDS AS PEST CONTROL AGENTS” (BAYER CROPSCIENCE AKTIENGESELLSCHAFT, priority 2014, published 2017)
Like-named read-outs stand apart in the source and are kept apart here.

How the values were obtained:
Myzus persicae = Myzus persicae - spray test; format: in vivo; details: foliar, 144 h, application rate 500 g/ha, after 6 days, sprayed Chinese cabbage leaf discs, 100% = all aphids killed, read-out: efficacy in %
Procedure: Myzus persicae—Spray Test • Solvent: 78 parts by weight of acetone • 1.5 parts by weight of dimethylformamide • Emulsifier: alkylaryl polyglycol ether […] To produce further test concentrations, the formulation is diluted with emulsifier-containing water. Discs of Chinese cabbage leaves (Brassica pekinensis) infested by all stages of the green peach aphid (Myzus persicae) are sprayed with an active ingredient formulation of the desired concentration. After 6 days, the efficacy in % is determined. 100% means that all the aphids have been killed and 0% means that none of the aphids have been killed.

[1] = logP determination by HPLC on reversed-phase columns (OECD Guideline 117); format: physicochemical; details: reversed-phase (C18) HPLC column
Procedure: The logP values were determined in accordance with OECD Guideline 117 (EC Directive 92/69/EEC) by HPLC (high-performance liquid chromatography) using reversed-phase (RP) columns (C18), by the following methods: [a] The LC-MS determination in the acidic range is carried out at pH 2.7 with 0.1% aqueous formic acid and acetonitrile (contains 0.1% formic acid) as eluents; linear gradient from 10% acetonitrile to 95% acetonitrile. [b] LC-MS determination in the neutral range is effected at pH 7.8 with 0.001 molar aqueous ammonium hydrogencarbonate solution and acetonitrile as eluents; linear gradient from 10% acetonitrile to 95% acetonitrile. Calibration is effected using unbranched alkan-2-ones (having 3 to 16 carbon atoms) with known logP values (logP values determined on the basis of the retention times by linear interpolation between two successive alkanone s).

Aphis gossypii = Aphis gossypii - spray test; format: in vivo; details: application rate 4 ppm; after 6 days; sprayed cotton plants; 100% = all aphids killed
Procedure: Aphis gossypii—Spray Test • Solvent: 7 parts by weight of dimethylformamide • Emulsifier: alkylaryl polyglycol ether
To produce a suitable active ingredient formulation, 1 part by weight of active ingredient is dissolved with the specified parts by weight of solvent and made up with water containing an emulsifier concentration of 1000 ppm until the desired concentration is attained. To produce further test concentrations, the formulation is diluted with emulsifier-containing water. If the addition of ammonium salts or/and penetrants is required, these are each added in a concentration of 1000 ppm to the formulation solution.
Cotton plants (Gossypium hirsutum) heavily infested by the cotton aphid (Aphis gossypii) are sprayed with an active ingredient formulation of the desired concentration.
After 6 days, the kill in % is determined. 100% means that all the aphids have been killed and 0% means that none of the aphids have been killed.

[2] = acidic range, pH 2.7, 0.1% aqueous formic acid and acetonitrile, read-out: logP[a]
[3] = neutral range, pH 7.8, 0.001 molar aqueous ammonium hydrogencarbonate and acetonitrile, read-out: logP[b]

Compound	chromatographic logP [1, 2]	chromatographic logP [1, 3]	pest or weed control at 500 g/ha (Myzus persicae) [%]	efficacy (kill in %) (Aphis gossypii) [%]
Cc1cc(F)c(-c2cnc3nn(-c4cccnc4)cc3c2)cc1SCC(F)(F)F [Example 2, 5-[2-Fluoro-4-methyl-5-(2,2,2-trifluoroethylsulphanyl)phenyl]-2-(3-pyridyl)pyrazolo[3,4-b]pyridine]	3.44	3.22	90	–
Cc1ccc(-c2cnc3nn(-c4cccnc4)cc3c2)cc1SCC(F)(F)F [Example 4, 5-[4-methyl-3-(2,2,2-trifluoroethylsulphanyl)phenyl]-2-(3-pyridyl)pyrazolo[3,4-b]pyridine]	3.14	3.1	100	–
Cc1cc(F)c(-c2cnc3nn(-c4cccnc4)cc3c2)cc1[S+]([O-])CC(F)(F)F (centres unmarked) [Example 3, 5-[2-fluoro-4-methyl-5-(2,2,2-trifluoroethylsulphinyl)phenyl]-2-(3-pyridyl)pyrazolo [3,4-b]pyridine]	2.14	2.11	90	–
Cn1cc(-c2cnc3nn(-c4cccnc4)cc3c2)cn1 [Example 8, 5-(1-methylpyrazol-4-yl)-2-(3-pyridyl)pyrazolo[3,4-b]pyridine]	1	1.15	90	–
Cc1ccc(-c2cnc3nn(-c4cccnc4)cc3c2)cc1[S+]([O-])CC(F)(F)F (centres unmarked) [Example 5, 5-[4-METHYL-3-(2,2,2-TRIFLUOROETHYLSULPHINYL)PHENYL]-2-(3-PYRIDYL)PYRAZOLO [3,4-B]PYRIDINE]	2.07	2.03	100	–

Continued, in another order:

chromatographic logP [1, 2]	chromatographic logP [1, 3]	Compound	pest or weed control at 500 g/ha (Myzus persicae) [%]	efficacy (kill in %) (Aphis gossypii) [%]
1.16	1.2	CSCCC(=O)N(C)c1cnc2nn(-c3cccnc3)cc2c1 [Example 10, N-[2-(3-pyridyl)pyrazolo[3,4-b]pyridin-5-yl]-N-methyl-3-methylsulphanylpropanamide]	90	–
1.15	1.21	CSCCC(=O)Nc1cnc2nn(-c3cccnc3)cc2c1 [Example 6, 3-methylsulphanyl-N-[2-(3-pyridyl)pyrazolo [3,4-b]pyridin-5-yl]propanamide]	100	–
–	0.54	CC(=O)Nc1cnc2nn(-c3cccnc3)cc2c1 [Example 1, 5-N-Acetylamino-2-(3-pyridyl)-pyrazolo[3,4-b]pyridine]	–	95
1.22	1.22	CC(F)(F)CC(=O)Nc1cnc2nn(-c3cccnc3)cc2c1 [Example 7, 3,3-DIFLUORO-N-[2-(3-PYRIDYL)PYRAZOLO[3,4-B]PYRIDIN-5-YL]BUTANAMIDE]	90	–
